Results on one compound are retold here after publication PMC7332124, “Design, One Pot Synthesis and Molecular Docking Studies of Substituted-1H-Pyrido[2,1-b] Quinazolines as Apoptosis-Inducing Anticancer Agents” (Asian Pacific Journal of Cancer Prevention : APJCP, 2020).

The subject of series [1] is A549. As to the kind of experiment: Cell growth inhibition assay (MTT, day 0 subtracted). The series is classed as cell-based, human. The note with it: Homo sapiens, 72 h, read-out: In vitro Growth Inhibitory Concentration (GI50). As to the method: (§1) Various cancer cells were used to screen anticancer activity of newly synthesized compounds. Lung (A549 and NCI-H460), colon (HCT-15 and HT-29), prostate (DU-145) cancer cells maintained in RPMI-1640 media while normal lung fibroblasts cell line (HFL-1) were maintained in F-12 k medium supplemented with 10% fetal bovine serum (FBS) with 1% antibiotic-antimycotic solution (Sigma). Cells were maintained in 5% CO2 with 98% relative humidity at 37 °C in incubator. When 80-90% of confluency is reached, they were sub-cultured using 0.25% trypsin/1 mM EDTA solution for further passage. The compounds in this series were dissolved in DMSO (1 %) to prepare the stock solution of 10 mM. Further dilutions were made accordingly with respective media to obtain the required concentrations.
(§2) Briefly, the cells were seeded on to a 96-well plate in 100 µl of medium. Following 24 h MTT reagent was added in few wells and day 0 absorbance was analyzed, and then cells were treated with compounds and incubated for an additional 72 h. After the treatment, 100 µl of MTT (0.5 mg/ml) was added and incubated at 37 °C for 4 h. Then MTT reagent was suctioned, the insoluble formazan crystals were dissolved in DMSO and formazan product formed is measured at 570 nm wavelength. The day 0 absorbance was subtracted from the 72 h incubated plates and data were plotted as a percentage of untreated control (Dai et al., 2011).

Series [2] has as its system DU-145. Described as above. The series is classed as cell-based, human. Particulars: Homo sapiens, 72 h, read-out: In vitro Growth Inhibitory Concentration (GI50). How it is done:
as §1, §2

Series [3] concerns HCT-15. Described as above. The series is classed as cell-based, human. Particulars: Homo sapiens, 72 h, read-out: In vitro Growth Inhibitory Concentration (GI50). How it is done: as §1, §2
Series [4] deals with HFL-1 normal lung fibroblasts. The series is described as above. The series is classed as cell-based, human. The note with it: Homo sapiens, HFL1, 72 h, read-out: In vitro Growth Inhibitory Concentration (GI50). As to the method:
as §1, §2

Series [5] concerns HT-29. The series is described as above. The series is classed as cell-based, human. Particulars: Homo sapiens, 72 h, read-out: In vitro Growth Inhibitory Concentration (GI50). As to the method:
as §1, §2

For series [6], the system named is NCI-H460. The series is described as above. The series is classed as cell-based, human. Particulars: Homo sapiens, 72 h, read-out: In vitro Growth Inhibitory Concentration (GI50). As to the method:
as §1, §2

The subject of series [7] is A549 cells. As to the kind of experiment: Acridine orange/ethidium bromide (AO/EB) staining. The series is classed as cell-based, human. Particulars: 0.5, 1, 2.5 and 5 µM, 72 h. As to the method: A549 cells were seeded at a concentration of 1.2x10^5 cells/ml and treated with various concentrations of compound 4q and the plates were incubated for 72 h. Then, 100 µl from fluorescent dyes comprising both Acridine Orange (Helfrich et al., 2016) and Ethidium Bromide (Vundru et al., 2013) were added into each well in equal volumes (10 µg/ml) respectively (Nekkanti et al., 2017), then the cells were Immediately visualized under fluorescence microscope with excitation (488 nm) and emission (550 nm) at 200X magnification.

For series [8], the system named is A549 cells. As to the kind of experiment: Clonogenic growth inhibition assay. Format: cell-based, human. The note with it: 1, 2.5 and 5 µM, 7 days. As to the method: The assay mainly tests ability to undergo “unlimited” division by every cell in the population and the hindrance of colony formation by compound 4i was determined in exponentially growing A549 cells by culturing 100-150 cells per well. […] Then, formed colonies were fixed with glutaraldehyde (6.0% v/v), stained with crystal violet (0.5% w/v). The treatment clearly […] the capacity to produce colonies in lung cancer cell population in a concentration dependent manner. […] The total colonies were counted by molecular imaging system Vilber Fusion Fx software and the values were represented as a percent colony forming ability.
Lung cancer cells A549 at exponentially phase were seeded into 12-well culture plates and kept overnight and treated with the compound 4q. Every 2 days the medium was replaced with the fresh medium. After 7 days of incubation, the colonies formed were fixed and stained with 1 % crystal violet in methanol for 3 h. The number of stained colonies were counted under chemdoc imaging system (Vilber Fusion Fx, France). Colony formation was calculated as a percentage to untreated control cultures (Moghaddam et al., 2009).

“Also recorded” adds a separate entry of the source.

`C1=CC2=NC3=C(CCCC3)C(c3cn(Cc4ccccc4)c4ccccc34)N2C=C1` (stereo not drawn) [Compound 4i, 11-(1-benzyl-1H-indol-3-yl)-2,3,4, 11-tetrahydro-1H-pyrido [2,1-b] quinazoline] returned a melting point of 185 to 186 °C. For the same compound, the GI50 in series [1] is 2.7 ± 0.18 µM. Further, the GI50 in series [2] was found to be 9.64 ± 0.37 µM. The GI50 in series [3] was found to be 6.27 ± 0.19 µM. Moreover, the GI50 in [4] is 4.54 ± 0.59 µM. The GI50 in [5] was determined as 5.98 ± 0.18 µM. For the same compound, in [6], the GI50 was 3.24 ± 0.4 µM. In addition, in series [7], the “apoptotic morphology by AO/EB staining” value is given as “induced apoptosis in A549 lung cancer cells”. Further, in series [8], the colony formation entry is given as “Reductions in the number of colonies; also recorded: strong anti-clonogenic effect”.

As a reminder, the melting point is the temperature of the solid-liquid transition.
